According to patent US20050026949A1, “Methods of therapeutic treatment using amounts of retinoids without regard to body weight” (Allergan, Inc., priority 2003, published 2005):

What was measured:
Type in all cases: in vivo, human
[1] = system: patients treated for psoriasis; assay: Phase 3 studies of orally administered tazarotene for psoriasis: adverse events (Table 1); conditions: Taz 4.5 mg
Method: A series of Phase 3 studies are conducted on orally administered tazarotene for the treatment of psoriasis. Adverse events (side effects) are monitored. In addition, published data for acitretin's side effects are also considered.

[2] = system: patients treated for acne; assay: Studies of orally administered tazarotene for acne: adverse events (Table 2); conditions: combined data from Studies 1 and 2 (N = 223)
Method: Studies are conducted on orally administered tazarotene for the treatment of acne. Adverse events (side effects) are monitored.

[3] = system: patients with severe nodulocystic acne; assay: Multicenter double-blind placebo-controlled study of oral tazarotene (Example 10); conditions: for patients withdrawing due to lack of efficacy: placebo 17%; for reduction in mean facial papule or pastule count / reduction in mean facial non-inflammatory lesion count / reduction in mean total facial nodulocystic lesion count: end of treatment; for reduction in mean facial papule or pastule count: placebo 31%; for reduction in mean facial non-inflammatory lesion count: placebo 45%; for reduction in mean total facial nodulocystic lesion count: placebo 55%
Description: A multicenter, double-blind, randomized, placebo-controlled parallel-group study is undertaken to determine the efficacy of orally administered tazarotene in treating severe nodulocystic acne.
In addition, washout periods for other medications for this study are: 1 week for vitamin A supplements >5000 IU; 2 weeks for topical anti-acne medications (e.g., retinoids, azelaic acid, benzoyl peroxide); 2 weeks for topical or systemic antibiotic therapy that may alter the course of acne; and 6 months for systemic retinoids.
Patients are randomized to receive placebo or oral tazarotene (0.75, 1.5, 3, or 6 mg), in a 1:1:1:1:1 ratio once daily for 24 weeks. After this, the patients are followed without treatment for an additional 12 weeks. Patients discontinuing from the treatment period due to adverse effects or lack of efficacy are eligible for entry into the post-treatment phase.
In the study, overall acne severity is rated as: none (no inflammatory acne lesions); mild (few to several papules or pustules, no nodulocystic lesions); moderate (several to many papules or pustules, few to several nodulocystic lesions); and severe (numerous or extensive papules or pustules, many, for example, at least about 5 or at least about 10, nodulocystic lesions).
Treatment success is defined as at least moderate (about 50%) improvement on the following 7-point global response scale: • 0=completely cleared • 1=almost cleared (about 90% improvement) • 2=marked response (about 75% improvement) • 3=moderate response (about 50% improvement) • 4=slight response (about 25% improvement) • 5=condition unchanged • 6=condition worsened
In this study, facial nodulocystic lesion count includes lesions greater than 5 mm in size. Facial papular/pustular lesion count includes lesions less than or equal to 5 mm in size. Facial non-inflammatory lesion count includes open and closed comedones.
Sebum output is assessed every 4 weeks at selected centers using the Sebutape® patches, sold by Cuderm Corporation. Urinalysis, chemistry, and hematology values are monitored. Bone formation and resorption assessments (serum bone alkaline phosphatase and serum amino terminal telopeptides, respectively) at selected centers are monitored.
Bone mineral density of spine and proximal femur at selected centers is monitored. Ligament calcification or osteophyte formation (lateral X-ray of the cervical and thoracic spine, and ankle calcaneous) is monitored. Epiphyseal growth plate closure (internal oblique X-ray of the ankle in patients less than or equal to 21 years old) is monitored.

[4] = Study 3, treated with Tazarotene for 3 months (N = 220)
[5] = Study 3, treated with Tazarotene for 6 months (N = 92)
[6] = combined data from Studies 1 and 2 (N = 348)
[7] = 0.75 to 6 mg once daily for 24 weeks

## CCOC(=O)c1ccc(C#Cc2ccc3c(c2)C(C)(C)CCS3)nc1 [tazarotene]
[1]; [4]
  Alopecia: 1 (0.5) NUMBER OF (%) OF PATIENTS
  Arthralgia: 28 (12.7) NUMBER OF (%) OF PATIENTS
  Atrophy of skin: 0 (0.0) NUMBER OF (%) OF PATIENTS
  Back pain: 7 (3.2) NUMBER OF (%) OF PATIENTS
  Cheilitis: 149 (67.7) NUMBER OF (%) OF PATIENTS
  Dry Skin: 47 (21.4) NUMBER OF (%) OF PATIENTS
  Dry mouth/Oral dryness: 11 (5.0) NUMBER OF (%) OF PATIENTS
  Epistaxis: 1 (0.5) NUMBER OF (%) OF PATIENTS
  Erythematous rash/Erythema: 0 (0.0) NUMBER OF (%) OF PATIENTS
  Hyperesthesia: 0 (0.0) NUMBER OF (%) OF PATIENTS
  Nail Disorder: 1 (0.5) NUMBER OF (%) OF PATIENTS
  Paresthesia: 3 (1.4) NUMBER OF (%) OF PATIENTS
  Paronychia/Nail disorder: 1 (0.5) NUMBER OF (%) OF PATIENTS
  Pruritus: 11 (5.0) NUMBER OF (%) OF PATIENTS
  Rhinitis: 0 (0.0) NUMBER OF (%) OF PATIENTS
  Rigors/Chills: 1 (0.5) NUMBER OF (%) OF PATIENTS
  Skin peeling/Desquamation: 3 (1.4) NUMBER OF (%) OF PATIENTS
  Sticky skin/Skin disorder: 0 (0.0) NUMBER OF (%) OF PATIENTS
  Xerophthalmia/Eye disorder: 3 (1.4) NUMBER OF (%) OF PATIENTS
[1]; [5]
  Alopecia: 5 (5.4) NUMBER OF (%) OF PATIENTS
  Arthralgia: 30 (32.6) NUMBER OF (%) OF PATIENTS
  Atrophy of skin: 0 (0.0) NUMBER OF (%) OF PATIENTS
  Back pain: 10 (10.9) NUMBER OF (%) OF PATIENTS
  Cheilitis: 65 (70.7) NUMBER OF (%) OF PATIENTS
  Dry Skin: 24 (26.1) NUMBER OF (%) OF PATIENTS
  Dry mouth/Oral dryness: 2 (2.2) NUMBER OF (%) OF PATIENTS
  Epistaxis: 0 (0.0) NUMBER OF (%) OF PATIENTS
  Erythematous rash/Erythema: 0 (0.0) NUMBER OF (%) OF PATIENTS
  Hyperesthesia: 0 (0.0) NUMBER OF (%) OF PATIENTS
  Nail Disorder: 1 (1.1) NUMBER OF (%) OF PATIENTS
  Paresthesia: 1 (1.1) NUMBER OF (%) OF PATIENTS
  Paronychia/Nail disorder: 1 (1.1) NUMBER OF (%) OF PATIENTS
  Pruritus: 3 (3.3) NUMBER OF (%) OF PATIENTS
  Rhinitis: 0 (0.0) NUMBER OF (%) OF PATIENTS
  Rigors/Chills: 1 (1.1) NUMBER OF (%) OF PATIENTS
  Skin peeling/Desquamation: 1 (1.1) NUMBER OF (%) OF PATIENTS
  Sticky skin/Skin disorder: 0 (0.0) NUMBER OF (%) OF PATIENTS
  Xerophthalmia/Eye disorder: 1 (1.1) NUMBER OF (%) OF PATIENTS
[1]; [6]
  Alopecia: 1 (0.3) NUMBER OF (%) OF PATIENTS
  Arthralgia: 60 (17.2) NUMBER OF (%) OF PATIENTS
  Atrophy of skin: 0 (0.0) NUMBER OF (%) OF PATIENTS
  Back pain: 16 (4.6) NUMBER OF (%) OF PATIENTS
  Cheilitis: 228 (65.5) NUMBER OF (%) OF PATIENTS
  Dry Skin: 82 (23.6) NUMBER OF (%) OF PATIENTS
  Dry mouth/Oral dryness: 11 (3.2) NUMBER OF (%) OF PATIENTS
  Epistaxis: 2 (0.6) NUMBER OF (%) OF PATIENTS
  Erythematous rash/Erythema: 2 (0.6) NUMBER OF (%) OF PATIENTS
  Hyperesthesia: 0 (0.0) NUMBER OF (%) OF PATIENTS
  Nail Disorder: 2 (0.6) NUMBER OF (%) OF PATIENTS
  Paresthesia: 7 (2.0) NUMBER OF (%) OF PATIENTS
  Paronychia/Nail disorder: 2 (0.6) NUMBER OF (%) OF PATIENTS
  Pruritus: 21 (6.0) NUMBER OF (%) OF PATIENTS
  Rhinitis: 8 (2.3) NUMBER OF (%) OF PATIENTS
  Rigors/Chills: 9 (2.6) NUMBER OF (%) OF PATIENTS
  Skin peeling/Desquamation: 3 (0.9) NUMBER OF (%) OF PATIENTS
  Sticky skin/Skin disorder: 1 (0.3) NUMBER OF (%) OF PATIENTS
  Xerophthalmia/Eye disorder: 8 (2.3) NUMBER OF (%) OF PATIENTS
[2]
  Cheilitis: 134 (60.1) NUMBER OF (%) OF PATIENTS
  Conjunctivitis: 0 (0.0) NUMBER OF (%) OF PATIENTS
  Desquamation central face/Desquamation: 1 (0.4) NUMBER OF (%) OF PATIENTS
  Dry Skin: 79 (35.4) NUMBER OF (%) OF PATIENTS
  Dry nose: 7 (3.1) NUMBER OF (%) OF PATIENTS
  Epistaxis: 6 (2.7) NUMBER OF (%) OF PATIENTS
  Fingertip peeling/Desquamation: 1 (0.4) NUMBER OF (%) OF PATIENTS
  Headache: 26 (11.7) NUMBER OF (%) OF PATIENTS
  Irritation of eyes: 0 (0.0) NUMBER OF (%) OF PATIENTS
  Joint pain/Arthralgia: 18 (8.1) NUMBER OF (%) OF PATIENTS
  Peeling/Desquamation: 1 (0.4) NUMBER OF (%) OF PATIENTS
  Pruritus: 10 (4.5) NUMBER OF (%) OF PATIENTS
  Rash-dermatitis/Rash: 7 (3.1) NUMBER OF (%) OF PATIENTS
  Red Scaly face/Desquamation: 1 (0.4) NUMBER OF (%) OF PATIENTS
  Skin fragility/Skin disorder: 1 (0.4) NUMBER OF (%) OF PATIENTS
[3]; 0.75 mg group (2/35)
  patients withdrawing due to adverse events in the treatment period: 6%
[3]; 0.75 mg group (7/35)
  patients withdrawing due to lack of efficacy: 20%
[3]; 0.75 mg group, end of the treatment phase, placebo 19%
  patients with either no acne or mild acne: 34%
[3]; 0.75 mg group
  reduction in mean facial papule or pastule count: 37%
  reduction in mean facial non-inflammatory lesion count: 46%
  reduction in mean total facial nodulocystic lesion count: 66%
[3]; 0.75 mg group, from 12.2 at baseline
  mean total facial nodulocystic lesion count at the end of the treatment period: 4.2
[3]; 0.75 mg group, from 32.3 at baseline
  mean facial papule or pastule count at the end of the treatment period: 20.3
[3]; 0.75 mg group, from 56.3 at baseline
  mean facial non-inflammatory lesion count at the end of the treatment period: 30.3
[3]; 1.5 mg group (0/37)
  patients withdrawing due to adverse events in the treatment period: 0%
[3]; 1.5 mg group (2/37)
  patients withdrawing due to lack of efficacy: 5%
[3]; 1.5 mg group
  reduction in mean facial papule or pastule count: 54%
  reduction in mean facial non-inflammatory lesion count: 70%
  reduction in mean total facial nodulocystic lesion count: 73%
[3]; 1.5 mg group, from 11.8 at baseline
  mean total facial nodulocystic lesion count at the end of the treatment period: 3.2
[3]; 1.5 mg group, from 29.1 at baseline
  mean facial papule or pastule count at the end of the treatment period: 13.3
[3]; 1.5 mg group, from 59.2 at baseline
  mean facial non-inflammatory lesion count at the end of the treatment period: 17.8
[3]; 3 mg and 6 mg, week 24 and throughout the post-treatment phase (p≦0.05)
  incidence of treatment success (≧50% global improvement) vs placebo: significantly higher incidence of treatment success
[3]; 3 mg group (0/37)
  patients withdrawing due to lack of efficacy: 0%
[3]; 3 mg group (2/37)
  patients withdrawing due to adverse events in the treatment period: 5%
[3]; 3 mg group, end of the post-treatment phase
  patients with either no acne or mild acne: 43%
[3]; 3 mg group
  reduction in mean facial papule or pastule count: 61%
  reduction in mean facial non-inflammatory lesion count: 62%
  reduction in mean total facial nodulocystic lesion count: 79%
[3]; 3 mg group, from 10.8 at baseline
  mean total facial nodulocystic lesion count at the end of the treatment period: 2.3
[3]; 3 mg group, from 25.4 at baseline
  mean facial papule or pastule count at the end of the treatment period: 10.0
[3]; 3 mg group, from 56.1 at baseline
  mean facial non-inflammatory lesion count at the end of the treatment period: 21.3
[3]; 3 mg group, placebo 24 weeks (p=0.017)
  median time to initial complete clearing of facial nodulocystic lesions: 16 weeks
[3]; 6 mg group (1/36)
  patients withdrawing due to adverse events in the treatment period: 3%
[3]; 6 mg group (2/36)
  patients withdrawing due to lack of efficacy: 6%
[3]; 6 mg group, end of the post-treatment phase
  patients with either no acne or mild acne: 53%
[3]; 6 mg group
  reduction in mean facial papule or pastule count: 55%
  reduction in mean facial non-inflammatory lesion count: 72%
  reduction in mean total facial nodulocystic lesion count: 86%
[3]; 6 mg group, from 11.6 at baseline
  mean total facial nodulocystic lesion count at the end of the treatment period: 1.6
[3]; 6 mg group, from 24.6 at baseline
  mean facial papule or pastule count at the end of the treatment period: 11.1
[3]; 6 mg group, from 47.7 at baseline
  mean facial non-inflammatory lesion count at the end of the treatment period: 13.5
[3]; 6 mg group, placebo 24 weeks (p=0.081)
  median time to initial complete clearing of facial nodulocystic lesions: 16 weeks
[3]; 6 mg, from week 16 until the end of the post-treatment phase (p≦0.01)
  overall acne severity: reduces the overall acne severity significantly more than placebo
[3]; [7]
  bone formation and resorption (serum bone alkaline phosphatase, serum amino terminal telopeptides): do not appear to be altered
  changes in urinalysis, chemistry, or hematology measures (including liver function tests, triglycerides, total cholesterol, HDL cholesterol): None of the treatment groups show any consistent clinically significant changes
  ligament calcification, osteophyte formation, or changes in bone density: None of the treatment groups show any clinically significant ligament calcification, osteophyte formation, or changes in bone density
[3]; 1.5, 3, and 6 mg groups, week 24
  percentage of patients with at least a 90% reduction in facial nodulocystic lesion count vs placebo: significantly greater
[3]; oral tazarotene 0.75 to 6 mg vs placebo
  sebum secretion (Sebutape method): does not substantially reduce sebum secretion relative to placebo
[3]; three highest dose groups, end of the treatment phase, placebo 19%
  patients with either no acne or mild acne: More than 45%
[3]; three highest doses, by week 12
  patients achieving treatment success: more than 70%
[3]; two highest doses, by week 24
  patients achieving treatment success: more than 86%
